Laboratory results as given in the supplement of paper PMC10307832.

How the values were obtained:
Assay in all cases: relative viability (nuclei count vs DMSO), 5 days (fraction); higher = more cells survive
[1] = compound: C1=CC=C(C(=C1)C2=CC=C(C=C2)C3=CSC4=C3C(=C(C(=O)N4)C#N)O)O + Nc1nc2[nH]cc(CCc3ccc(C(=O)N[C@@H](CCC(=O)O)C(=O)O)cc3)c2c(=O)[nH]1 [Pemetrexed] (partner 0.2 µM)
Method in brief: (§1)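 Lung cancer cell lines in 1536-well plates were dosed by pin tool the day after seeding, either with one drug alone or with a fixed anchor-drug dose plus five library-drug doses (not always all listed) in √10 steps. After 5 days, cells were fixed and their nuclei stained in one step (final 0.05% Triton X-100, 1% formaldehyde, 1 ug/ml Hoechst), then counted on 4× images. Relative viability is the nuclei count in treated wells divided by that in vehicle wells. Values are medians of duplicate plates.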

Ricolinostat + OSI-027 = compound: O=C(CCCCCCNC(=O)c1cnc(N(c2ccccc2)c2ccccc2)nc1)NO [Ricolinostat] + COc1cccc2cc(-c3nc([C@H]4CC[C@H](C(=O)O)CC4)n4ncnc(N)c34)[nH]c12 [OSI-027] (partner 0.5 µM)
Method in brief: as §1

TGX 221 + Foretinib = compound: CC1=CN2C(=O)C=C(N=C2C(=C1)C(C)NC3=CC=CC=C3)N4CCOCC4 [TGX 221] + COc1cc2c(Oc3ccc(NC(=O)C4(C(=O)Nc5ccc(F)cc5)CC4)cc3F)ccnc2cc1OCCCN1CCOCC1 [Foretinib] (partner 0.25 µM)
Method in brief: as §1

[2] = compound: C1=CC=C(C(=C1)C2=CC=C(C=C2)C3=CSC4=C3C(=C(C(=O)N4)C#N)O)O + CCNC(=O)c1noc(-c2cc(C(C)C)c(O)cc2O)c1-c1ccc(CN2CCOCC2)cc1 [Luminespib] (partner 0.01 µM)
Method in brief: as §1

Row | Cell Line | relative viability ([1]; first compound 0.08 µM) | relative viability ([1]; first compound 0.253 µM) | relative viability ([1]; first compound 0.8 µM) | relative viability ([1]; first compound 2.53 µM) | relative viability ([1]; first compound 8 µM) | relative viability (Ricolinostat + OSI-027; first compound 0.08 µM) | relative viability (Ricolinostat + OSI-027; first compound 0.253 µM) | relative viability (Ricolinostat + OSI-027; first compound 0.8 µM) | relative viability (Ricolinostat + OSI-027; first compound 2.53 µM) | relative viability (TGX 221 + Foretinib; first compound 0.08 µM) | relative viability (TGX 221 + Foretinib; first compound 0.253 µM) | relative viability (TGX 221 + Foretinib; first compound 0.8 µM) | relative viability (TGX 221 + Foretinib; first compound 2.53 µM) | relative viability (TGX 221 + Foretinib; first compound 8 µM) | relative viability ([2]; first compound 0.08 µM) | relative viability ([2]; first compound 0.253 µM) | relative viability ([2]; first compound 0.8 µM) | relative viability ([2]; first compound 2.53 µM) | relative viability ([2]; first compound 8 µM)
1 | HCC-15 | 0.237 | 0.232 | 0.213 | 0.242 | 0.215 | 0.501 | 0.64 | 0.624 | 0.592 | 0.993 | 0.964 | 1 | 0.973 | 1 | 0.277 | 0.289 | 0.297 | 0.38 | 0.3
2 | HCC-44 | 0.702 | 0.61 | 0.649 | 0.613 | 0.57 | 0.373 | 0.587 | 0.4 | 0.27 | – | – | – | – | – | – | 1.55 | 0.993 | 1.12 | 0.822
3 | HCC-78 | 0.79 | 0.946 | 0.903 | 0.959 | 0.883 | – | 0.372 | 0.341 | 0.395 | 0.581 | 0.551 | 0.586 | 0.478 | 0.502 | – | – | – | – | –
4 | HCC-366 | – | 0.172 | 0.168 | 0.176 | 0.165 | 0.809 | 1.05 | 0.842 | 0.523 | 0.844 | 0.892 | 0.96 | 0.902 | 0.813 | – | – | – | – | –
5 | HCC-827 | 0.283 | 0.25 | 0.244 | 0.305 | 0.282 | 0.687 | 0.83 | 0.721 | 0.841 | 1.08 | 1.08 | 1.07 | 0.927 | 0.904 | 0.639 | 0.845 | 0.573 | 0.7 | 0.43
6 | HOP-62 | 0.364 | 0.336 | 0.301 | 0.348 | 0.279 | 0.636 | 0.815 | 0.79 | 0.625 | 1.09 | 1.1 | 1.05 | 1.15 | 1.08 | 0.925 | 0.892 | 0.876 | 1.05 | 0.762
7 | IA-LM | – | – | – | – | – | – | – | – | – | 1.18 | 1.04 | 1.08 | 1.22 | 1.11 | – | – | – | – | –
8 | LC-2-ad | 0.268 | 0.288 | 0.279 | 0.306 | 0.257 | 0.723 | 0.711 | 0.635 | 0.517 | 0.865 | 0.85 | 0.95 | 0.825 | 0.751 | 1.08 | 1.4 | 1.01 | 1.23 | 0.983
9 | LCLC-97TM1 | 0.177 | 0.179 | 0.16 | 0.182 | 0.166 | 0.271 | 0.524 | 0.541 | 0.27 | 0.949 | 1.01 | 0.904 | 0.959 | 0.802 | 0.971 | 1.07 | 0.78 | 0.729 | 0.654
